Data as given in the supplement of paper PMC10290057.

System: HCT116
Assay: efficacy (fitted maximal change in viability relative to DMSO control); higher = less cytotoxic (negative = loss of viability)
Conditions: 48 h
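Also: Luminescence-based viability readout, five doses per compound, normalized against on-plate DMSO and empty-well controls, followed by dose-response curve fitting for every drug.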

**Q.** With N#Cc1ccc(NC(=O)Nc2ccccc2Br)c2nn[nH]c12 as the compound, how does the efficacy read?
**A.** -26%

**Q.** How did the efficacy turn out when CC(C)(C(=O)NCC(F)(F)C(F)(F)F)C(=O)N[C@@H]1C(=O)Nc2ccccc2-c2ccccc21 was run?
**A.** -10.6%

**Q.** How did the efficacy turn out when CC(C)(C)C(=O)Oc1ccc2c(c1)nc(NC(=O)c1cccc([N+](=O)[O-])c1)n2CCCO was run?
**A.** -19.1%

**Q.** With CC(C)(O)c1coc([S+](=O)([O-])NC(=O)Nc2c3c(cc4c2CCC4)CCC3)c1 as the compound, how does the efficacy read?
**A.** 7.83%

**Q.** CC(C)c1c2cc(-c3ccnc(N[C@H]4CC[C@H](NC5CCOCC5)CC4)n3)ccc2nn1C was tested. Which efficacy did it give?
**A.** -72.3%

**Q.** For CC(C)n1cc(-c2ccc3c(c2)N(C)CC3)c2c(N[S+](=O)([O-])c3ccn(C)n3)ccnc21, which efficacy is on record?
**A.** -24.7%

**Q.** Cc1noc(-c2ccc(CSCCC(=O)O)cc2)c1NC(=O)OC(C)c1ccccc1Cl (stereo not drawn) was tested. Which efficacy did it give?
**A.** -36.3%

**Q.** Which efficacy does the source give for Cc1cnc(-c2cc(N3CCN(C(=O)CC[S+](C)(=O)[O-])CC3)ncc2Cl)c(C)c1 here?
**A.** -93.8%

**Q.** Cc1cc(SCc2sc(-c3ccc(C(F)(F)F)cc3)nc2C)ccc1OCC(=O)O was tested. Which efficacy did it give?
**A.** -13.6%

**Q.** Which efficacy does the source give for Cc1cc2c(cc1C1(c3ccc(C(=O)O)cn3)CC1)C(C)(C)CCC2(C)C here?
**A.** -25.8%

**Q.** How did the efficacy turn out when CC1=CC=CC=C1N2\C(=N/C3=C(C(=CC=C3)C)C2=O)C[N]4C=NC5=C4N=CN=C5N was run?
**A.** -13.6%

**Q.** How did the efficacy turn out when Cc1c(Cn2c(C)nc3c(C(=O)O)cc(N4CCOCC4)cc32)cccc1C(F)(F)F was run?
**A.** -10.9%

**Q.** With Cc1n[nH]c2ncc(C(=O)N3CCC[C@H]3c3ccc(Cl)cc3)cc12 as the compound, how does the efficacy read?
**A.** -17.4%

**Q.** CC1COC2(CCN(CC2)C/3=N/C(=O)C4=CC(=CC(=C4S3)[N+]([O-])=O)C(F)(F)F)O1 (stereo not drawn) was tested. Which efficacy did it give?
**A.** -19.7%

**Q.** How did the efficacy turn out when CCC(C)N(C)C(=O)c1cc2ccccc2c(-c2ccccc2Cl)n1 (stereo not drawn) was run?
**A.** -46.4%

**Q.** CCc1ccc(/C=C2/SC(=S)NC2=O)cc1 was tested. Which efficacy did it give?
**A.** -29%

**Q.** With CCN([C@H]1CC[C@@H](CC1)N(C)CCOC)C2=C(C)C(=CC(=C2)C#CCN3CCOCC3)C(=O)NC\C4=C(C)\C=C(\C)NC4=O as the compound, how does the efficacy read?
**A.** -10.4%

**Q.** CCOC(=O)C(C)OC1=CC=CC2=C1\C=C/N(CC(=O)NC3=CC=C4OCCOC4=C3)C2=O (stereo not drawn) was tested. Which efficacy did it give?
**A.** -19.6%

**Q.** CCn1c(C(=O)N(C2CC2)C2CC2)cc2c3c(ncn3C)c(Nc3cc(C)n(C)n3)nc21 was tested. Which efficacy did it give?
**A.** -25.7%

**Q.** Which efficacy does the source give for CN(C)C(=O)[C@H](O)[C@H](Cc1ccccc1)NC(=O)c1cc2cc(Cl)ccc2[nH]1 here?
**A.** -14.2%

**Q.** Cc1ccc(NC(=O)c2cccc(N(C)C)c2)cc1NC(=O)c1ccc(O)cc1 was tested. Which efficacy did it give?
**A.** -21.6%

**Q.** For CN(C)CCNC(=O)NC[C@H]1CC[C@@H]2[C@H](O1)c1cc(C(F)(F)F)ccc1N[C@H]2c1ccccc1, which efficacy is on record?
**A.** -63.4%

**Q.** Cc1cn2cc(C(=O)N(C)CCO)cc(N[C@@H]3CCOc4cccc(C)c43)c2n1 was tested. Which efficacy did it give?
**A.** -27.6%

**Q.** CN(CCOc1ccc(-c2ccc3c(c2)OCO3)cc1C(C)(C)C)CC(=O)O was tested. Which efficacy did it give?
**A.** -58.3%

**Q.** With CN1C(=O)N(c2cc(Cl)cc(Cl)c2)C(=O)[C@]12CN(Cc1cc(C(=O)O)cs1)C[C@H]2c1ccc(C#N)cc1 as the compound, how does the efficacy read?
**A.** -6.34%

**Q.** Which efficacy does the source give for CN1CCN(CC1)C\2=C\3/C=C(/C)SC3=N/C4=CC=CC=C4N2 here?
**A.** -17.1%

**Q.** With CN1CCN(CCCNc2ncc(Cl)c(-c3cc4c(C(=O)NC5CC5)cccc4s3)n2)CC1 as the compound, how does the efficacy read?
**A.** -28.8%

**Q.** How did the efficacy turn out when COc1cc(NC(=O)c2ccc(-c3ccc(Cl)cc3)o2)cc(OC)c1 was run?
**A.** -43.9%

**Q.** COc1ccc([S+](=O)([O-])NCc2ccc(C(=O)NCCc3ccc(Cl)cn3)cc2)cc1 was tested. Which efficacy did it give?
**A.** -62.6%

**Q.** Which efficacy does the source give for COc1ccc(Cc2ccc(NC(N)=O)cc2)cc1-c1cccc(Cl)c1 here?
**A.** -74.8%

**Q.** For COc1ccc(CCC(=O)Nc2nc3ccc(Cl)cc3s2)cc1OC, which efficacy is on record?
**A.** -14.1%

**Q.** COc1ccc(COc2cc3oc(=O)c4cc(C(C)O)ccc4c3cc2OC)cc1 (stereo not drawn) was tested. Which efficacy did it give?
**A.** -22%

**Q.** For C=C[C@H]1CN2CC[C@H]1C[C@H]2[C@H](O)c1ccnc2ccc(OC)cc12, which efficacy is on record?
**A.** -34.1%

**Q.** For COc1nccc(-c2c(-c3ccc(F)cc3)ncn2C2CCC(O)CC2)n1 (stereo not drawn), which efficacy is on record?
**A.** -34.5%

**Q.** Which efficacy does the source give for COc1nccc(-c2c(-c3ccc(F)cc3)ncn2C2CCNCC2)n1 here?
**A.** -39.7%

**Q.** Which efficacy does the source give for COC[C@@H](c1ccc(C(F)(F)F)cc1)N1CCN(C2(C)CCN(C(=O)c3c(C)ncnc3C)CC2)C[C@@H]1C here?
**A.** -15.4%

**Q.** How did the efficacy turn out when CONC(=O)c1ccccc1Nc1cc(Nc2cc(C)nn2C(C)C)ncc1Cl was run?
**A.** -40.7%

**Q.** With C[C@H](c1ccc(F)cc1CCCC(=O)O)N(c1cc(F)ccc1F)[S+](=O)([O-])c1ccc(Cl)cc1 as the compound, how does the efficacy read?
**A.** -30.3%

**Q.** With Cc1noc(-c2ccc(-c3ccc(C4(C(=O)O)CC4)cc3)cc2)c1NC(=O)O[C@H](C)c1ccccc1 as the compound, how does the efficacy read?
**A.** -40.6%

**Q.** With C[C@H](NC(=O)Cc1cc(F)cc(F)c1)C(=O)N[C@@H]1C(=O)N(C)c2ccccc2-c2ccccc21 as the compound, how does the efficacy read?
**A.** -23.7%

**Q.** How did the efficacy turn out when C[C@](Cc1c[nH]c2ccccc12)(NC(=O)OC1C2CC3CC(C2)CC1C3)C(=O)NC[C@H](NC(=O)CCC(=O)O)c1ccccc1 (stereo partly drawn) was run?
**A.** 9.82%

**Q.** Which efficacy does the source give for C[C@@]1(C(=O)Nc2ccc(F)nc2)CCCN1c1nc(Nc2cc(C3CC3)[nH]n2)c2cccn2n1 here?
**A.** -59.3%

**Q.** Cn1cc(/C=C2\C(=O)Nc3cccnc32)c2ccccc21 was tested. Which efficacy did it give?
**A.** -35.8%

**Q.** Which efficacy does the source give for Cn1cc(-c2ccc3c(c2)CCN3C(=O)Cc2cccc(C(F)(F)F)c2)c2c(N)ncnc21 here?
**A.** -17.9%

**Q.** How did the efficacy turn out when Cn1cc(-c2ccc(-c3cncc(Cl)c3N3CCC4(CCNC4=O)CC3)cc2)cn1 was run?
**A.** -49.2%

**Q.** How did the efficacy turn out when Cn1cc(-c2c[nH]c3ncnc(N4CCOCC4)c23)cn1 was run?
**A.** -31.9%

**Q.** For Cn1ccc2cc3c(cc21)CCN3C(=O)Nc1cccnc1, which efficacy is on record?
**A.** -22.8%

**Q.** For O=C(N[C@H]1CN2CCC1CC2)c1ccc(Cl)cc1, which efficacy is on record?
**A.** -55.8%

**Q.** O=C(Nc1ccc2c(c1)CCN(Cc1ncn[nH]1)C2)c1ccccc1-c1ccc(C(F)(F)F)cc1 was tested. Which efficacy did it give?
**A.** 17.5%

**Q.** With O=C1NC(=O)/C(=C\c2ccc(-c3ccc(F)cc3)o2)S1 as the compound, how does the efficacy read?
**A.** -23.2%

**Q.** For O=C(Nc1cccnc1)c1cc(-c2ccnc(F)c2)ccc1OCc1ccccc1, which efficacy is on record?
**A.** -24.6%

**Q.** For N#CN1CCC[C@@H](n2nc(-c3ccc(Oc4ccc(F)cc4F)cc3)c(C(N)=O)c2N)C1, which efficacy is on record?
**A.** -38.1%

**Q.** Which efficacy does the source give for NC(=O)c1cccc(N)c1 here?
**A.** -10.2%

**Q.** NC(CC1c2ccccc2Oc2ccccc21)(C(=O)O)C1CC1C(=O)O (stereo not drawn) was tested. Which efficacy did it give?
**A.** -10.8%

**Q.** With Nc1nccc(-c2c(-c3ccc(F)cc3)ncn2C2CCCCC2)n1 as the compound, how does the efficacy read?
**A.** -55.4%

**Q.** How did the efficacy turn out when Nc1ncnc2c1C(=O)N(c1ccc([C@H]3CC[C@H](CC(=O)O)CC3)cc1)CCO2 was run?
**A.** -5.95%

**Q.** Which efficacy does the source give for Nc1nc(OC(c2ccc(-c3cccc(F)c3)cc2)C(F)(F)F)cc(-c2ccc(C[C@H](N)C(=O)O)cc2)n1 (stereo partly drawn) here?
**A.** -21.2%

**Q.** O=C(NC1CCOCC1)c1ccc(-c2cc(-c3c[nH]nc3-c3ccccn3)ccn2)cc1 was tested. Which efficacy did it give?
**A.** -24%

**Q.** For O=C1NC(=O)/C(=C/c2ccc3nccnc3c2)S1, which efficacy is on record?
**A.** -27.3%

**Q.** How did the efficacy turn out when O=C1\C=C(/OC2=C1C=CC=C2C3=CC=CC=C3)N4CCOCC4 was run?
**A.** -24.3%

**Q.** With O=C(O)/C(S)=C/c1ccc(I)cc1 as the compound, how does the efficacy read?
**A.** -6.45%

**Q.** O=[S+]([O-])(O)c1ccc2cc(/N=N/c3cc([S+](=O)([O-])O)c4cccnc4c3O)ccc2c1 was tested. Which efficacy did it give?
**A.** -23.5%

**Q.** How did the efficacy turn out when O=C1Cc2cc(C(=O)NC3C[C@H]4CC[C@@H](C3)N4[S+](=O)([O-])CC3CCN(CCCC(F)(F)F)CC3)c(Cl)cc2N1 (stereo partly drawn) was run?
**A.** -9.6%
